Source: PubChem BioAssay AID2060613 (Molecular Pharmacology Branch, DTP, NCI, 2025)
Where “and” joins values, the source holds several entries; their conditions need not be identical. Equal entries are not always repeated.

Test system: 233499-124-R-J3-PDC complex spheroid viability
Assay: Anticancer human tumor 233499-124-R-J3-PDC patient-derived colon adenocarcinoma cell line growth inhibition [CLK]
Conditions: for viability, T/C: stronger effect = lower value
Method in brief: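 Patient-derived tumor cells grown as complex spheroids with HUVEC endothelial cells and mesenchymal stem cells, treated with drug combinations. Concentrations descend in half-log steps from near clinical Cmax, or from 10 microM if Cmax unknown.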

[1] = curve of first compound, second compound 0.0316 µM
[2] = curve of first compound, second compound 0.1 µM
[3] = curve of first compound, second compound 0.316 µM
[4] = curve of first compound, second compound 1 µM
[5] = curve of first compound, second compound 3.16 µM
[6] = curve of first compound, second compound 10 µM
[7] = second compound 0.0316 µM, first compound 0.0316 µM
[8] = second compound 0.0316 µM, first compound 0.1 µM
[9] = second compound 0.0316 µM, first compound 0.316 µM
[10] = second compound 0.0316 µM, first compound 1 µM
[11] = second compound 0.1 µM, first compound 0.0316 µM
[12] = second compound 0.1 µM, first compound 0.1 µM
[13] = second compound 0.1 µM, first compound 0.316 µM
[14] = second compound 0.1 µM, first compound 1 µM
[15] = second compound 0.316 µM, first compound 0.0316 µM
[16] = second compound 0.316 µM, first compound 0.1 µM
[17] = second compound 0.316 µM, first compound 0.316 µM
[18] = second compound 0.316 µM, first compound 1 µM
[19] = second compound 1 µM, first compound 0.0316 µM
[20] = second compound 1 µM, first compound 0.1 µM
[21] = second compound 1 µM, first compound 0.316 µM
[22] = second compound 1 µM, first compound 1 µM
[23] = second compound 3.16 µM, first compound 0.0316 µM
[24] = second compound 3.16 µM, first compound 0.1 µM
[25] = second compound 3.16 µM, first compound 0.316 µM
[26] = second compound 3.16 µM, first compound 1 µM
[27] = second compound 10 µM, first compound 0.0316 µM
[28] = second compound 10 µM, first compound 0.1 µM
[29] = second compound 10 µM, first compound 0.316 µM
[30] = second compound 10 µM, first compound 1 µM
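Also: spheroids exposed to the drug combinations for seven days.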
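For viability, T/C in this document: percent viability relative to DMSO vehicle control wells taken as 100%.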

## NC(=O)C(=Cn1cnc(-c2cc(C(F)(F)F)cc(C(F)(F)F)c2)n1)c1cncnc1 + CN1CCN(c2cc(C(=O)Nc3cc4cc(-c5cnn(C)c5)ccc4cn3)ccn2)CC1
[1]
  IC50: 181 nM
[2]
  IC50: 76.8 nM
[3]
  IC50: < 9.49 nM
[4]
  IC50: < 9.49 nM
[5]
  IC50: < 9.49 nM
[6]
  IC50: < 9.49 nM
Second compound 0.0316 µM, first compound 0.00949 µM
  viability, T/C: 72.5%
Second compound 0.0316 µM, first compound 0.03 µM
  viability, T/C: 85.6%
Second compound 0.0316 µM, first compound 0.0949 µM
  viability, T/C: 67.3%
Second compound 0.0316 µM, first compound 0.3 µM
  viability, T/C: 35.2%
Second compound 0.0316 µM, first compound 0.949 µM
  viability, T/C: 10.4%
Second compound 0.0316 µM, first compound 3 µM
  viability, T/C: 2.15%
Second compound 0.1 µM, first compound 0.00949 µM
  viability, T/C: 102%
Second compound 0.1 µM, first compound 0.03 µM
  viability, T/C: 96.2%
Second compound 0.1 µM, first compound 0.0949 µM
  viability, T/C: 39.2%
Second compound 0.1 µM, first compound 0.3 µM
  viability, T/C: 7.63%
Second compound 0.1 µM, first compound 0.949 µM
  viability, T/C: 0.53%
Second compound 0.1 µM, first compound 3 µM
  viability, T/C: 0.43%
Second compound 0.316 µM, first compound 0.00949 µM
  viability, T/C: 22.2%
Second compound 0.316 µM, first compound 0.03 µM
  viability, T/C: 13.2%
Second compound 0.316 µM, first compound 0.0949 µM
  viability, T/C: 0.29%
Second compound 0.316 µM, first compound 0.3 µM
  viability, T/C: 0.23%
Second compound 0.316 µM, first compound 0.949 µM
  viability, T/C: 0.39%
Second compound 0.316 µM, first compound 3 µM
  viability, T/C: 1.07%
Second compound 1 µM, first compound 0.00949 µM
  viability, T/C: 0.3%
Second compound 1 µM, first compound 0.03 µM
  viability, T/C: 0.31%
Second compound 1 µM, first compound 0.0949 µM
  viability, T/C: 0.31%
Second compound 1 µM, first compound 0.3 µM
  viability, T/C: 0.25%
Second compound 1 µM, first compound 0.949 µM
  viability, T/C: 0.48%
Second compound 1 µM, first compound 3 µM
  viability, T/C: 0.23%
Second compound 3.16 µM, first compound 0.00949 µM
  viability, T/C: 0.3%
Second compound 3.16 µM, first compound 0.03 µM
  viability, T/C: 0.26%
Second compound 3.16 µM, first compound 0.0949 µM
  viability, T/C: 0.25%
Second compound 3.16 µM, first compound 0.3 µM
  viability, T/C: 0.25%
Second compound 3.16 µM, first compound 0.949 µM
  viability, T/C: 0.21%
Second compound 3.16 µM, first compound 3 µM
  viability, T/C: 0.19%
Second compound 10 µM, first compound 0.00949 µM
  viability, T/C: 0.13%
Second compound 10 µM, first compound 0.03 µM
  viability, T/C: 0.12%
Second compound 10 µM, first compound 0.0949 µM
  viability, T/C: 0.19%
Second compound 10 µM, first compound 0.3 µM
  viability, T/C: 0.17%
Second compound 10 µM, first compound 0.949 µM
  viability, T/C: 0.19%
Second compound 10 µM, first compound 3 µM
  viability, T/C: 0.21%

## C=CC(=O)N1CCN(c2nc(=O)n(-c3c(C)ccnc3C(C)C)c3nc(-c4c(O)cccc4F)c(F)cc23)C(C)C1 (stereo not given)
Compound 0.0316 µM
  viability, T/C: 90.5% and 101%
Compound 0.1 µM
  viability, T/C: 81.9% and 87.6%
Compound 0.316 µM
  viability, T/C: 90.6% and 110%
Compound 1 µM
  viability, T/C: 87.6% and 101%
Compound 3.16 µM
  viability, T/C: 95% and 104%
Compound 10 µM
  viability, T/C: 96% and 92.6%
Curve of compound
  IC50: > 10000 nM

## O=C(c1cc(Cc2n[nH]c(=O)c3ccccc23)ccc1F)N1CCN(C(=O)C2CC2)CC1 + CN1CCN(c2cc(C(=O)Nc3cc4cc(-c5cnn(C)c5)ccc4cn3)ccn2)CC1
[1]
  IC50: > 10000 nM
[2]
  IC50: > 10000 nM
[3]
  IC50: > 10000 nM
[4]
  IC50: < 31.6 nM
[5]
  IC50: < 31.6 nM
[6]
  IC50: < 31.6 nM
[7]
  viability, T/C: 79.9%
[8]
  viability, T/C: 98.1%
[9]
  viability, T/C: 96.8%
[10]
  viability, T/C: 108%
Second compound 0.0316 µM, first compound 3.16 µM
  viability, T/C: 99.4%
Second compound 0.0316 µM, first compound 10 µM
  viability, T/C: 93.2%
[11]
  viability, T/C: 98.6%
[12]
  viability, T/C: 105%
[13]
  viability, T/C: 103%
[14]
  viability, T/C: 109%
Second compound 0.1 µM, first compound 3.16 µM
  viability, T/C: 110%
Second compound 0.1 µM, first compound 10 µM
  viability, T/C: 82.4%
[15]
  viability, T/C: 103%
[16]
  viability, T/C: 99.4%
[17]
  viability, T/C: 103%
[18]
  viability, T/C: 93.8%
Second compound 0.316 µM, first compound 3.16 µM
  viability, T/C: 96.8%
Second compound 0.316 µM, first compound 10 µM
  viability, T/C: 87.1%
[19]
  viability, T/C: 3.57%
[20]
  viability, T/C: 2.51%
[21]
  viability, T/C: 2.71%
[22]
  viability, T/C: 16.4%
Second compound 1 µM, first compound 3.16 µM
  viability, T/C: 3.61%
Second compound 1 µM, first compound 10 µM
  viability, T/C: 1.27%
[23]
  viability, T/C: 0.91%
[24]
  viability, T/C: 0.94%
[25]
  viability, T/C: 0.75%
[26]
  viability, T/C: 0.71%
Second compound 3.16 µM, first compound 3.16 µM
  viability, T/C: 0.8%
Second compound 3.16 µM, first compound 10 µM
  viability, T/C: 1.09%
[27]
  viability, T/C: 0.64%
[28]
  viability, T/C: 0.56%
[29]
  viability, T/C: 0.6%
[30]
  viability, T/C: 4.25%
Second compound 10 µM, first compound 3.16 µM
  viability, T/C: 0.89%
Second compound 10 µM, first compound 10 µM
  viability, T/C: 1.84%

## CCc1c2c(nc3ccc(O)cc13)-c1cc3c(c(=O)n1C2)COC(=O)[C@]3(O)CC + CN1CCN(c2cc(C(=O)Nc3cc4cc(-c5cnn(C)c5)ccc4cn3)ccn2)CC1
[1]
  IC50: 601 nM
[2]
  IC50: 463 nM
[3]
  IC50: 81.4 nM
[4]
  IC50: < 3.16 nM
[5]
  IC50: < 3.16 nM
[6]
  IC50: < 3.16 nM
Second compound 0.0316 µM, first compound 0.00316 µM
  viability, T/C: 95.4%
Second compound 0.0316 µM, first compound 0.01 µM
  viability, T/C: 65.8%
[7]
  viability, T/C: 81.8%
[8]
  viability, T/C: 87.3%
[9]
  viability, T/C: 60.5%
[10]
  viability, T/C: 41.7%
Second compound 0.1 µM, first compound 0.00316 µM
  viability, T/C: 85.6%
Second compound 0.1 µM, first compound 0.01 µM
  viability, T/C: 82.5%
[11]
  viability, T/C: 88%
[12]
  viability, T/C: 88.1%
[13]
  viability, T/C: 60.7%
[14]
  viability, T/C: 28.4%
Second compound 0.316 µM, first compound 0.00316 µM
  viability, T/C: 88%
Second compound 0.316 µM, first compound 0.01 µM
  viability, T/C: 80.9%
[15]
  viability, T/C: 58.5%
[16]
  viability, T/C: 58.5%
[17]
  viability, T/C: 14.1%
[18]
  viability, T/C: 9.37%
Second compound 1 µM, first compound 0.00316 µM
  viability, T/C: 1.6%
Second compound 1 µM, first compound 0.01 µM
  viability, T/C: 0.5%
[19]
  viability, T/C: 0.39%
[20]
  viability, T/C: 0.38%
[21]
  viability, T/C: 0.35%
[22]
  viability, T/C: 0.47%
Second compound 3.16 µM, first compound 0.00316 µM
  viability, T/C: 0.46%
Second compound 3.16 µM, first compound 0.01 µM
  viability, T/C: 0.5%
[23]
  viability, T/C: 0.59%
[24]
  viability, T/C: 0.52%
[25]
  viability, T/C: 0.63%
[26]
  viability, T/C: 0.55%
Second compound 10 µM, first compound 0.00316 µM
  viability, T/C: 0.36%
Second compound 10 µM, first compound 0.01 µM
  viability, T/C: 0.33%
[27]
  viability, T/C: 0.32%
[28]
  viability, T/C: 0.37%
[29]
  viability, T/C: 0.42%
[30]
  viability, T/C: 0.3%

## NC(=O)C(=Cn1cnc(-c2cc(C(F)(F)F)cc(C(F)(F)F)c2)n1)c1cncnc1
Compound 0.00949 µM
  viability, T/C: 79.8% and 85.7%
Compound 0.03 µM
  viability, T/C: 92.3% and 86.1%
Compound 0.0949 µM
  viability, T/C: 94.4% and 92.1%
Compound 0.3 µM
  viability, T/C: 70.9% and 61.6%
Compound 0.949 µM
  viability, T/C: 57.1% and 48%
Compound 3 µM
  viability, T/C: 19.2% and 7.79%
Curve of compound
  IC50: 1120 nM and 750 nM
